Assay results: patent US20260373434A1, “QUICK DISSOLVABLE MICRONEEDLE WITH ENHANCED MECHANICAL STRENGTH, ITS COMPOSITIONS AND METHOD FOR FABRICATION THEREOF” (TRANSFORM SCITECH PRIVATE LIMITED, priority 2023, published 2026)
Where a name gives a salt, the structure may show the parent alone.

Tests used:
[1] = in vitro drug release study (Franz diffusion cell, pH 7.4); type: physicochemical; conditions: pH 7.4, 37 °C
Procedure: • Equipment: Franz diffusion cell shown in FIG. 38. • Dissolution medium: Physiological buffer solution pH (7.4) • Temperature: 37±0.2 °C. • Rotational speed: 100 rpm • Mode of sample analysis for Salbutamol sulphate—HPLC-UV analysis using RP C18 250X 4.6 mm; 5-micron, 100 A column and 87 parts of ammonium acetate buffer (pH 3.0, 20 mM) with sodium hexane sulfonate in combination with 13 parts of acetonitrile as a mobile phase. • Mode of sample analysis for Lorazepam—UV analysis, absorbance 280 nm • Mode of sample analysis for Cetirizine dihydrochloride—UV analysis, absorbance 276 nm • Mode of sample analysis for Ondansetran—UV analysis, absorbance 249 nm
Drug release at early time points was used to check the quick release characteristics. Salbutamol sulphate, Lorazepam and Cetirizine dihydrochloride which are soluble drugs released more than 80% achieving the quick release characteristics. Ondansetran which is a poorly soluble drug released about 30% in 20 minutes. Probably owing to its slow rate of dissolution. All drugs were analysed using appropriate UV/HPLC method as described in EXAMPLE 3. (FIGS. 39, 40, 41, 42, 43, 44)

[2] = drug classification and dissolution in the fabrication solvent; type: physicochemical; conditions: fabrication stage
Procedure: Salbutamol sulphate (Dose per patch 2.5 mg) and Lorazepam (Dose per patch 4 mg) are BCS Class I drugs, Cetirizine dihydrochloride (Dose per patch 5 mg) is BCS class III and Ondansetron Hydrochloride (Dose per patch 16 mg) is BCS Class II. The various drugs were studied for suitability of incorporation into the Dissolving microneedle formulation.

SMILES: O=C(O)COCCN1CCN(C(c2ccccc2)c2ccc(Cl)cc2)CC1 (centres unmarked) [Cetirizine dihydrochloride]
- Cetirizine dihydrochloride released ([1]; batch MN01/02/83A, early time points, UV 276 nm): more than 80%

SMILES: CC(C)(C)NCC(O)c1ccc(O)c(CO)c1 (centres unmarked) [Salbutamol sulphate]
- Salbutamol sulphate released ([1]; batches MN01/02/64, MN01/02/77/A, MN01/02/77/B, early time points, HPLC-UV): more than 80%

SMILES: O=C1Nc2ccc(Cl)cc2C(c2ccccc2Cl)=NC1O (centres unmarked) [Lorazepam]
- Lorazepam released ([1]; batch MN01/02/82, early time points, UV 280 nm): more than 80%

SMILES: Cc1nccn1CC1CCc2c(c3ccccc3n2C)C1=O (centres unmarked) [Ondansetron Hydrochloride]
- Ondansetran released ([1]; batch MN01/02/84, in 20 minutes, UV 249 nm): about 30%
- dissolution of drug in the aqueous solvent during fabrication [2]: remained dispersed
